The source of these data is patent publication US20230174530A1, “N-(PHENYLAMINOCARBONYL) TETRAHYDRO-ISOQUINOLINES AND RELATED COMPOUNDS AS MODULATORS OF GPR65” (PATHIOS THERAPEUTICS LIMITED, priority 2020, published 2023).

Some results are limits rather than exact numbers.

This assay addresses T1, human recombinant GPR65 (Homo sapiens, UniProt Q8IYL9).
T1 construct: host or cells: 1321N1 human astrocytoma cells (1321N1-hrGPR65)
As to the kind of experiment: Human GPR65 cAMP HTRF antagonist assay. The class given is cell-based. As to conditions: 1321N1-hrGPR65 cells stimulated at assay pH 7.2; suppression of cAMP rise; read-out: hGPR65 IC50. As for the experimental part:
Human GPR65 Cyclic Adenosine Monophosphate (cAMP) Homogeneous Time Resolved Fluorescence (HTRF) Antagonist Assay Procedure
IC50 data was obtained by the following procedure:
1321N1 human astrocytoma cells stably expressing human recombinant GPR65 (1321N1-hrGPR65 cells, EuroscreenFast) were cultured according to the vendor's instructions.
Compounds were tested for their ability to antagonise GPR65, through measuring the concentration of cytoplasmic cAMP following treatment of the cells at a pH of 7.2 to activate GPR65 signalling and addition of the compound to be tested. The extent to which the expected rise in cAMP concentration upon GPR65 activation was suppressed by the added compound is indicative of its potency. The assay was carried out according to EuroscreenFast assay methodology as follows.
On the day of the assay, test compounds were added to 384-well, low volume, white microtiter plates by acoustic dispensing. KRH buffer (5 mM KCl, 1.25 mM MgSO4, 124 mM NaCl, 25 mM HEPES, 13.3 mM Glucose, 1.25 mM KH2PO4 and 1.45 mM CaCl2) was adjusted to pH 6.5, pH 7.6 and pH 8.4 by adding NaOH. 1321N1-hGPR65 cells were rapidly thawed and diluted in KRH, pH 7.6 prior to centrifugation at 300×g for 5 min and resuspension in assay buffer (KRH, pH 7.6, supplemented with 1 mM 3-isobutyl-1-methylxanthine (IBMX) and 200 μM ethylenediaminetetraacetic acid (EDTA)). Cells were added to assay plates at a density of 2,000 cells per well in a volume of 5 μl. Assay plates were briefly centrifuged at 100×g and then incubated at room temperature for 30 min. Cells were stimulated by the addition of 5 μL KRH, pH 6.5, to achieve an assay pH of 7.2, while control wells received 5 μl KRH, pH 8.4 to achieve an assay pH of 7.9. Assay plates were briefly centrifuged at 100×g and then incubated at room temperature for 30 min.
Accumulation of cAMP was detected by cAMP HTRF kit (Cisbio). d2-labeled cAMP and cryptate-labeled anti-cAMP antibody in Lysis and Detection Buffer (Cisbio) were added to assay plates, and the plates were incubated at room temperature for 1 h. HTRF measurements were performed using a Pherastar FSX instrument. Acceptor and donor emission signals were measured at 665 nm and 620 nm, respectively, and HTRF ratios were calculated as signal665 nm/signal620 nm×10^4. Data were normalised to high and low control values and fitted with 4-parameter logistic regression to determine hGPR65 IC50 values for the test compounds, which are shown in Table 1.
(In TR-FRET formats the signal depends on donor and acceptor labels being close together.)

T1 sequence (Q8IYL9 whole entry): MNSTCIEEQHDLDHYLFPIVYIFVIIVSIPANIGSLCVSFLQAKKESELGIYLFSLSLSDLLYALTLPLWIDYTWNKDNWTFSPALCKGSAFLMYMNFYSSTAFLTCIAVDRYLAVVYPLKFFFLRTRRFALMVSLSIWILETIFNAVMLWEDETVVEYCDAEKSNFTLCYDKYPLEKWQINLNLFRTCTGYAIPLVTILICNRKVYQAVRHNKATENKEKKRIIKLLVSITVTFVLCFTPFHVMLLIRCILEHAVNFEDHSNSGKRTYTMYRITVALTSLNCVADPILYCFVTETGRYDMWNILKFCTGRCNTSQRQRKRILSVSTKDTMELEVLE

For `O=C(Nc1ccc(Cl)c(Cl)c1)N1CCc2ncncc2C1` [Compound 1, N-(3,4-Dichlorophenyl)-7,8-dihydropyrido[4,3-d]pyrimidine-6(5H)-carboxamide], the IC50 lay in the range of 0.5 to 5 µM.
To `O=C(Nc1ccc(Cl)cc1)N1CCc2ncncc2C1` [Compound 2, N-(4-Chlorophenyl)-7,8-dihydropyrido[4,3-d]pyrimidine-6(5H)-carboxamide] belongs more than 5 µM; to `O=C(Nc1cccc(Cl)c1)N1CCc2ncncc2C1` [Compound 3, N-(3-Chlorophenyl)-7,8-dihydropyrido[4,3-d]pyrimidine-6(5H)-carboxamide], more than 5 µM.
The figure for `O=C(Nc1ccc(C(F)(F)F)cc1)N1CCc2ncncc2C1` [Compound 4, N-(4-(Trifluoromethyl)phenyl)-7,8-dihydropyrido[4,3-d]pyrimidine-6(5H)-carboxamide] is more than 5 µM; for `O=C(Nc1ccc(Cl)c(C(F)(F)F)c1)N1CCc2ncncc2C1` [Compound 5, N-(4-Chloro-3-(trifluoromethyl)phenyl)-7,8-dihydropyrido[4,3-d]pyrimidine-6(5H)-carboxamide] it is 0.5 to 5 µM.
The figure for `O=C(Nc1ccc(C(F)(F)F)c(Cl)c1)N1CCc2ncncc2C1` [Compound 6, N-(3-Chloro-4-(trifluoromethyl)phenyl)-7,8-dihydropyrido[4,3-d]pyrimidine-6(5H)-carboxamide] is 0.5 to 5 µM; for `O=C(Nc1ccc(Cl)c(C(F)(F)F)c1)N1CCc2cncnc2C1` [Compound 7, N-(4-Chloro-3-(trifluoromethyl)phenyl)-5,8-dihydropyrido[3,4-d]pyrimidine-7(6H)-carboxamide] it is 0.5 to 5 µM; for `O=C(Nc1ccc(Cl)c(Cl)c1)N1CCc2cncnc2C1` [Compound 8, N-(3,4-Dichlorophenyl)-5,8-dihydropyrido[3,4-d]pyrimidine-7(6H)-carboxamide] it is more than 5 µM.
For the molecule `O=C(Nc1ccc(C(F)(F)F)c(Cl)c1)N1CCc2cncnc2C1` [Compound 9, N-(3-Chloro-4-(trifluoromethyl)phenyl)-5,8-dihydropyrido[3,4-d]pyrimidine-7(6H)-carboxamide], the IC50 was more than 5 µM.
To `O=C(Nc1ccc(C(F)(F)F)c(Cl)c1)N1CCc2ccccc2C1` [Compound 10, N-(3-Chloro-4-(trifluoromethyl)phenyl)-3,4-dihydroisoquinoline-2(1H)-carboxamide] belongs 0.5 to 5 µM; to `O=C(Nc1ccc(Cl)c(C(F)(F)F)c1)N1CCc2ccccc2C1` [Compound 11, N-(4-Chloro-3-(trifluoromethyl)phenyl)-3,4-dihydroisoquinoline-2(1H)-carboxamide], 0.5 to 5 µM; to `O=C(Nc1ccc(Cl)c(Cl)c1)N1CCc2cnccc2C1` [Compound 12, N-(3,4-Dichlorophenyl)-3,4-dihydro-2,6-naphthyridine-2(1H)-carboxamide], 0.5 to 5 µM.
Take `O=C(Nc1ccc(Cl)c(C(F)(F)F)c1)N1CCc2cnccc2C1` [Compound 13, N-(4-Chloro-3-(trifluoromethyl)phenyl)-3,4-dihydro-2,6-naphthyridine-2(1H)-carboxamide]: the IC50 lay within 0.5 to 5 µM.
Consider `O=C(Nc1ccc(C(F)(F)F)c(Cl)c1)N1CCc2cnccc2C1` [Compound 14, N-(3-Chloro-4-(trifluoromethyl)phenyl)-3,4-dihydro-2,6-naphthyridine-2(1H)-carboxamide], for which the IC50 is less than 0.5 µM.
The figure for `O=C(Nc1ccc(Cl)c(Cl)c1)N1CCc2ccncc2C1` [Compound 15, N-(3,4-Dichlorophenyl)-3,4-dihydro-2,7-naphthyridine-2(1H)-carboxamide] is 0.5 to 5 µM.
To `O=C(Nc1ccc(Cl)c(C(F)(F)F)c1)N1CCc2ccncc2C1` [Compound 16, N-(4-Chloro-3-(trifluoromethyl)phenyl)-3,4-dihydro-2,7-naphthyridine-2(1H)-carboxamide] belongs 0.5 to 5 µM; to `O=C(Nc1ccc(C(F)(F)F)c(Cl)c1)N1CCc2ccncc2C1` [Compound 17, N-(3-Chloro-4-(trifluoromethyl)phenyl)-3,4-dihydro-2,7-naphthyridine-2(1H)-carboxamide], 0.5 to 5 µM.
Turning to `O=C(Nc1ccc(Cl)c(Cl)c1)N1CCc2cccnc2C1` [Compound 18, N-(3,4-Dichlorophenyl)-5,8-dihydro-1,7-naphthyridine-7(6H)-carboxamide], the IC50 is more than 5 µM.
To `O=C(Nc1ccc(C(F)(F)F)c(Cl)c1)N1CCc2cccnc2C1` [Compound 19, N-(3-Chloro-4-(trifluoromethyl)phenyl)-5,8-dihydro-1,7-naphthyridine-7(6H)-carboxamide] belongs 0.5 to 5 µM; to `O=C(Nc1ccc(Cl)c(Cl)c1)N1CCc2ncccc2C1` [Compound 20, N-(3,4-Dichlorophenyl)-7,8-dihydro-1,6-naphthyridine-6(5H)-carboxamide], more than 5 µM.
The figure for `O=C(Nc1ccc(Cl)c(C(F)(F)F)c1)N1CCc2ncccc2C1` [Compound 21, N-(4-Chloro-3-(trifluoromethyl)phenyl)-7,8-dihydro-1,6-naphthyridine-6(5H)-carboxamide] is more than 5 µM; for `O=C(Nc1ccc(C(F)(F)F)c(Cl)c1)N1CCc2ncccc2C1` [Compound 22, N-(3-Chloro-4-(trifluoromethyl)phenyl)-7,8-dihydro-1,6-naphthyridine-6(5H)-carboxamide] it is more than 5 µM.
To `O=C(Nc1ccc(Cl)c(Cl)c1)N1CCc2nccnc2C1` [Compound 23, N-(3,4-Dichlorophenyl)-7,8-dihydropyrido[3,4-b]pyrazine-6(5H)-carboxamide] belongs more than 5 µM.
Consider `O=C(Nc1ccc(C(F)(F)F)c(Cl)c1)N1CCc2nccnc2C1` [Compound 24, N-(3-Chloro-4-(trifluoromethyl)phenyl)-7,8-dihydropyrido[3,4-b]pyrazine-6(5H)-carboxamide], for which the IC50 is more than 5 µM.
For the molecule `O=C(Nc1ccc(Cl)c(C(F)(F)F)c1)N1CCc2oncc2C1` [Compound 25, N-(4-Chloro-3-(trifluoromethyl)phenyl)-6,7-dihydroisoxazolo[4,5-c]pyridine-5(4H)-carboxamide], the IC50 is 0.5 to 5 µM.
As for `O=C(Nc1ccc(C(F)(F)F)c(Cl)c1)N1CCc2oncc2C1` [Compound 26, N-(3-Chloro-4-(trifluoromethyl)phenyl)-6,7-dihydroisoxazolo[4,5-c]pyridine-5(4H)-carboxamide], the IC50 was 0.5 to 5 µM.
Consider `Cc1cccc2c1CN(C(=O)Nc1ccc(Cl)c(Cl)c1)CC2` [Compound 27, N-(3,4-Dichlorophenyl)-8-methyl-3,4-dihydroisoquinoline-2(1H)-carboxamide], for which the IC50 is 0.5 to 5 µM.
To `Cc1cccc2c1CN(C(=O)Nc1ccc(Cl)c(C(F)(F)F)c1)CC2` [Compound 28, N-(4-Chloro-3-(trifluoromethyl)phenyl)-8-methyl-3,4-dihydroisoquinoline-2(1H)-carboxamide] belongs more than 5 µM.
To `Cc1cccc2c1CN(C(=O)Nc1ccc(C(F)(F)F)c(Cl)c1)CC2` [Compound 29, N-(3-Chloro-4-(trifluoromethyl)phenyl)-8-methyl-3,4-dihydroisoquinoline-2(1H)-carboxamide] belongs 0.5 to 5 µM; to `O=C(Nc1ccc(C(F)(F)F)c(Cl)c1)N1CCc2ccc(Cl)cc2C1` [Compound 30, 7-Chloro-N-(3-chloro-4-(trifluoromethyl)phenyl)-3,4-dihydroisoquinoline-2(1H)-carboxamide], less than 0.5 µM.
Take `O=C(Nc1ccc(Cl)c(Cl)c1)N1CCc2ccc(F)cc2C1` [Compound 31, N-(3,4-Dichlorophenyl)-7-fluoro-3,4-dihydroisoquinoline-2(1H)-carboxamide]: the IC50 was less than 0.5 µM.
In the case of `O=C(Nc1ccc(Cl)c(C(F)(F)F)c1)N1CCc2ccc(F)cc2C1` [Compound 32, N-(4-Chloro-3-(trifluoromethyl)phenyl)-7-fluoro-3,4-dihydroisoquinoline-2(1H)-carboxamide], the 50% inhibitory concentration (IC50) was 0.5 to 5 µM.
With `O=C(Nc1ccc(C(F)(F)F)c(Cl)c1)N1CCc2ccc(F)cc2C1` [Compound 33, N-(3-Chloro-4-(trifluoromethyl)phenyl)-7-fluoro-3,4-dihydroisoquinoline-2(1H)-carboxamide], the IC50 was less than 0.5 µM.
To `Cc1ccc2c(c1)CN(C(=O)Nc1ccc(Cl)c(Cl)c1)CC2` [Compound 34, N-(3,4-Dichlorophenyl)-7-methyl-3,4-dihydroisoquinoline-2(1H)-carboxamide] belongs more than 5 µM.

Broadly, the IC50 is the concentration needed to halve the response being measured.
